Assay results taken from the supplement of paper PMC10307832.

Tests used:
Assay in all cases: relative viability (nuclei count vs DMSO), 5 days (fraction); higher = more cells survive
SW 900 = test system: SW 900
Method in brief: (§1)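 The day after seeding in 1536-well plates, lung cancer cell lines were treated by pin tool with a single drug, or with a fixed anchor-drug dose together with five library-drug doses (not always all listed) in √10 steps. After 5 days, a combined fix-and-stain solution (final 0.05% Triton X-100, 1% formaldehyde, 1 ug/ml Hoechst) was added. Nuclei counted on 4× images gave relative viability as treated counts over vehicle counts, reported as the median of duplicate plates.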

H3255 = test system: H3255
Method in brief: as §1

COR-L23 = test system: COR-L23
Method in brief: as §1

NCI-H2170 = test system: NCI-H2170
Method in brief: as §1

NCI-H322M = test system: NCI-H322M
Method in brief: as §1

NCI-H2023 = test system: NCI-H2023
Method in brief: as §1

EPLC-272H = test system: EPLC-272H
Method in brief: as §1

NCI-H3122 = test system: NCI-H3122
Method in brief: as §1

NCI-H1563 = test system: NCI-H1563
Method in brief: as §1

NCI-H2347 = test system: NCI-H2347
Method in brief: as §1

NCI-H1650 = test system: NCI-H1650
Method in brief: as §1

HCC-15 = test system: HCC-15
Method in brief: as §1

NCI-H520 = test system: NCI-H520
Method in brief: as §1

NCI-H1793 = test system: NCI-H1793
Method in brief: as §1

PC-14 = test system: PC-14
Method in brief: as §1

NCI-H2405 = test system: NCI-H2405
Method in brief: as §1

NCI-H647 = test system: NCI-H647
Method in brief: as §1

LOU-NH91 = test system: LOU-NH91
Method in brief: as §1

UMC-11 = test system: UMC-11
Method in brief: as §1

NCI-H441 = test system: NCI-H441
Method in brief: as §1

201T = test system: 201T
Method in brief: as §1

NCI-H1734 = test system: NCI-H1734
Method in brief: as §1

Cc1sc2c(c1C)C(c1ccc(Cl)cc1)=N[C@@H](CC(=O)OC(C)(C)C)c1nnc(C)n1-2 [JQ1] + Cc1nc(Nc2ncc(C(=O)Nc3c(C)cccc3Cl)s2)cc(N2CCN(CCO)CC2)n1 [Dasatinib] (partner 0.075 µM)
relative viability (SW 900; first compound 0.04 µM): 0.521 | relative viability (SW 900; first compound 0.1265 µM): 0.456 | relative viability (SW 900; first compound 0.4 µM): 0.298 | relative viability (SW 900; first compound 1.265 µM): 0.193 | relative viability (SW 900; first compound 4 µM): 0.135 | relative viability (H3255; first compound 0.04 µM): 0.438 | relative viability (H3255; first compound 0.1265 µM): 0.319 | relative viability (H3255; first compound 0.4 µM): 0.504 | relative viability (H3255; first compound 1.265 µM): 0.317 | relative viability (H3255; first compound 4 µM): 0.269 | relative viability (COR-L23; first compound 0.04 µM): 0.507 | relative viability (COR-L23; first compound 0.1265 µM): 0.351 | relative viability (COR-L23; first compound 0.4 µM): 0.516 | relative viability (COR-L23; first compound 1.265 µM): 0.279 | relative viability (COR-L23; first compound 4 µM): 0.256 | relative viability (NCI-H2170; first compound 0.04 µM): 0.57 | relative viability (NCI-H2170; first compound 0.1265 µM): 0.47 | relative viability (NCI-H2170; first compound 0.4 µM): 0.392 | relative viability (NCI-H2170; first compound 1.265 µM): 0.334 | relative viability (NCI-H2170; first compound 4 µM): 0.305 | relative viability (NCI-H322M; first compound 0.04 µM): 0.234 | relative viability (NCI-H322M; first compound 0.1265 µM): 0.245 | relative viability (NCI-H322M; first compound 0.4 µM): 0.24 | relative viability (NCI-H322M; first compound 1.265 µM): 0.225 | relative viability (NCI-H322M; first compound 4 µM): 0.239 | relative viability (NCI-H2023; first compound 0.04 µM): 0.5 | relative viability (NCI-H2023; first compound 0.1265 µM): 0.339 | relative viability (NCI-H2023; first compound 0.4 µM): 0.272 | relative viability (NCI-H2023; first compound 1.265 µM): 0.178 | relative viability (NCI-H2023; first compound 4 µM): 0.15 | relative viability (EPLC-272H; first compound 0.04 µM): 0.352 | relative viability (EPLC-272H; first compound 0.1265 µM): 0.382 | relative viability (EPLC-272H; first compound 0.4 µM): 0.358 | relative viability (EPLC-272H; first compound 1.265 µM): 0.175 | relative viability (EPLC-272H; first compound 4 µM): 0.204 | relative viability (NCI-H3122; first compound 0.04 µM): 0.777 | relative viability (NCI-H3122; first compound 0.1265 µM): 0.551 | relative viability (NCI-H3122; first compound 0.4 µM): 0.582 | relative viability (NCI-H3122; first compound 1.265 µM): 0.463 | relative viability (NCI-H3122; first compound 4 µM): 0.209 | relative viability (NCI-H1563; first compound 0.04 µM): 0.446 | relative viability (NCI-H1563; first compound 0.1265 µM): 0.405 | relative viability (NCI-H1563; first compound 0.4 µM): 0.533 | relative viability (NCI-H1563; first compound 1.265 µM): 0.443 | relative viability (NCI-H1563; first compound 4 µM): 0.362 | relative viability (NCI-H2347; first compound 0.04 µM): 0.273 | relative viability (NCI-H2347; first compound 0.1265 µM): 0.395 | relative viability (NCI-H2347; first compound 0.4 µM): 0.304 | relative viability (NCI-H2347; first compound 1.265 µM): 0.371 | relative viability (NCI-H2347; first compound 4 µM): 0.235 | relative viability (NCI-H1650; first compound 0.04 µM): 0.313 | relative viability (NCI-H1650; first compound 0.1265 µM): 0.272 | relative viability (NCI-H1650; first compound 0.4 µM): 0.201 | relative viability (NCI-H1650; first compound 1.265 µM): 0.134 | relative viability (NCI-H1650; first compound 4 µM): 0.143 | relative viability (HCC-15; first compound 0.04 µM): 0.524 | relative viability (HCC-15; first compound 0.4 µM): 0.5 | relative viability (HCC-15; first compound 1.265 µM): 0.339 | relative viability (HCC-15; first compound 4 µM): 0.227 | relative viability (NCI-H520; first compound 0.04 µM): 0.206 | relative viability (NCI-H520; first compound 0.1265 µM): 0.196 | relative viability (NCI-H520; first compound 0.4 µM): 0.207 | relative viability (NCI-H520; first compound 1.265 µM): 0.159 | relative viability (NCI-H520; first compound 4 µM): 0.221 | relative viability (NCI-H1793; first compound 0.04 µM): 0.312 | relative viability (NCI-H1793; first compound 0.1265 µM): 0.345 | relative viability (NCI-H1793; first compound 0.4 µM): 0.435 | relative viability (NCI-H1793; first compound 1.265 µM): 0.385 | relative viability (NCI-H1793; first compound 4 µM): 0.418 | relative viability (PC-14; first compound 0.04 µM): 0.283 | relative viability (PC-14; first compound 0.1265 µM): 0.187 | relative viability (PC-14; first compound 0.4 µM): 0.119 | relative viability (PC-14; first compound 1.265 µM): 0.14 | relative viability (PC-14; first compound 4 µM): 0.05 | relative viability (NCI-H2405; first compound 0.04 µM): 0.19 | relative viability (NCI-H2405; first compound 0.1265 µM): 0.195 | relative viability (NCI-H2405; first compound 0.4 µM): 0.19 | relative viability (NCI-H2405; first compound 1.265 µM): 0.169 | relative viability (NCI-H2405; first compound 4 µM): 0.147 | relative viability (NCI-H647; first compound 0.04 µM): 0.147 | relative viability (NCI-H647; first compound 0.1265 µM): 0.0904 | relative viability (NCI-H647; first compound 0.4 µM): 0.124 | relative viability (NCI-H647; first compound 1.265 µM): 0.045 | relative viability (NCI-H647; first compound 4 µM): 0.0403 | relative viability (LOU-NH91; first compound 0.04 µM): 0.549 | relative viability (LOU-NH91; first compound 0.1265 µM): 0.463 | relative viability (LOU-NH91; first compound 0.4 µM): 0.324 | relative viability (LOU-NH91; first compound 1.265 µM): 0.326 | relative viability (LOU-NH91; first compound 4 µM): 0.354 | relative viability (UMC-11; first compound 0.04 µM): 0.501 | relative viability (UMC-11; first compound 0.1265 µM): 0.43 | relative viability (UMC-11; first compound 0.4 µM): 0.321 | relative viability (UMC-11; first compound 1.265 µM): 0.239 | relative viability (UMC-11; first compound 4 µM): 0.221 | relative viability (NCI-H441; first compound 0.04 µM): 0.558 | relative viability (NCI-H441; first compound 0.1265 µM): 0.572 | relative viability (NCI-H441; first compound 0.4 µM): 0.634 | relative viability (NCI-H441; first compound 1.265 µM): 0.273 | relative viability (NCI-H441; first compound 4 µM): 0.209 | relative viability (201T; first compound 0.04 µM): 0.606 | relative viability (201T; first compound 0.1265 µM): 0.428 | relative viability (201T; first compound 0.4 µM): 0.508 | relative viability (201T; first compound 1.265 µM): 0.491 | relative viability (201T; first compound 4 µM): 0.372 | relative viability (NCI-H1734; first compound 0.04 µM): 0.55 | relative viability (NCI-H1734; first compound 0.1265 µM): 0.444 | relative viability (NCI-H1734; first compound 0.4 µM): 0.457 | relative viability (NCI-H1734; first compound 1.265 µM): 0.454 | relative viability (NCI-H1734; first compound 4 µM): 0.382
